*1 amine or outer side, *2 acyl side, *3 side chain or, on linkers, in order; H or OH if unused. Where a SMILES comes first, the peptide text is derived from it. Bridges are numbered along the chain shown (N, C = ends). [ ]: non-standard residue; d: D form. Adda = CO[C@@H](Cc1ccccc1)[C@@H](C)/C=C(C)/C=C/[C@H](N[*:1])[C@H](C)C(=O)[*:2]; dAsp(3S-Me) = C[C@H](C(=O)[*:3])[C@@H](N[*:1])C(=O)[*:2]; d(γGlu) = O=C(O)[C@@H](CCC(=O)[*:2])N[*:1]; NMeDha = C=C(NC)C(=O)O
Legend:
Format in all cases: biochemical
v-Abl kinase = molecular target: T1, v-Abl kinase (Abelson murine leukemia virus, UniProt P00521); assay: v-Abl kinase phosphorylation of optical probe, fluorescence readout after chymotrypsin; conditions: v-Abl, abl optical probe as substrate; read-out: apparent Km for ATP
T1 construct: purchased Calbiochem

PP2A = PP2A (Homo sapiens, UniProt P67775); assay: PP2A inhibitor assay with optical probe
Method: (§1) To determine if the optical probe phosphatase assay could detect inhibitors of PP2A, the phosphatase assay was performed in the presence or absence of 100 nM microcystin-LR. PP2A assays were set up as described above, and were incubated at 30 C for 2 hours. Reactions were diluted to 100 μL with 50 mM HEPES, pH 7.5 followed by the addition of chymotrypsin to 0.2 μM. Fluorescence values were measured on the Cytofluor after a 1.5 hour incubation at room temperature. As described above, treatment of the phosphorylated optical probe (SEQ. ID. NO: 23) with PP2A followed by chymotrypsin gave a final 460/530 ratio of 8.8±0.1. […] Thus, the optical probe based phosphatase assay can detect inhibitors of PP2A activity.

chymotrypsin = chymotrypsin (Bos taurus, UniProt P00766); assay: Control: effect of inhibitor on chymotrypsin cleavage of non-phosphorylated probe
Method: (§2) To determine if the optical probe protein phosphatase assay could detect inhibitors of PP1, the phosphatase assay was performed in the presence or absence of 1 μM microcystin-LR, a potent inhibitor of PP1. Phosphatase assays were set up as described above except the phosphatase was allowed to pre-incubate with microcystin-LR for 10 minutes before the addition of phosphorylated or non-phosphorylated optical probes (SEQ. ID. NO: 23). PP1 reactions were incubated at 30 C for 1 hour and then diluted to 100 μL in 50 mM HEPES, pH 7.5 followed by the addition of chymotrypsin to 0.2 μM. Fluorescence values were measured on the Cytofluor after a 2 hour incubation at room temperature as described above. After treatment of the phosphorylated optical probe with PP1 followed by chymotrypsin, the 460/530 ratio was 13.2±0.2. […] Thus, the present invention could be used to detect inhibitors of PP1 activity.
as §1

PP1 = PP1 (Homo sapiens, UniProt P62136); assay: PP1 inhibitor assay with optical probe
Method: as §2

Chain of PP2A (P67775 whole entry): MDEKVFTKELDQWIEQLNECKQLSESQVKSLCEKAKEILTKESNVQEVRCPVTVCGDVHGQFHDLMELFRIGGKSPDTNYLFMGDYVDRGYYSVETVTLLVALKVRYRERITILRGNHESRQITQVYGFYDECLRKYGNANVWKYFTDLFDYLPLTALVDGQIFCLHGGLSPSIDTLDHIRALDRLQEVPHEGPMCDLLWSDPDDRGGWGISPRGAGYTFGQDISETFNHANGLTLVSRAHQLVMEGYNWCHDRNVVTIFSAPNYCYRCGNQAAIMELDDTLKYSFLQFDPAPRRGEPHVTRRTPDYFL
Chain of PP1 (P62136 whole entry): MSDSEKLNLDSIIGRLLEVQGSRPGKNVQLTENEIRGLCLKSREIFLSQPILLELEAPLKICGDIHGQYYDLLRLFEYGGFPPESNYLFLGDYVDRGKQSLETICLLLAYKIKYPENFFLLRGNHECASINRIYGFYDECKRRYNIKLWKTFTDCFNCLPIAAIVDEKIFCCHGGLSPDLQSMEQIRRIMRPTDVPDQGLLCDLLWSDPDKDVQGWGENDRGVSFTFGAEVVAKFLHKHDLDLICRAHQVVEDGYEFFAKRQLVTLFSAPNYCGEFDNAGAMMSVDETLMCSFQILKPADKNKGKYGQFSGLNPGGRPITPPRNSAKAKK
T1 sequence (P00521 whole entry): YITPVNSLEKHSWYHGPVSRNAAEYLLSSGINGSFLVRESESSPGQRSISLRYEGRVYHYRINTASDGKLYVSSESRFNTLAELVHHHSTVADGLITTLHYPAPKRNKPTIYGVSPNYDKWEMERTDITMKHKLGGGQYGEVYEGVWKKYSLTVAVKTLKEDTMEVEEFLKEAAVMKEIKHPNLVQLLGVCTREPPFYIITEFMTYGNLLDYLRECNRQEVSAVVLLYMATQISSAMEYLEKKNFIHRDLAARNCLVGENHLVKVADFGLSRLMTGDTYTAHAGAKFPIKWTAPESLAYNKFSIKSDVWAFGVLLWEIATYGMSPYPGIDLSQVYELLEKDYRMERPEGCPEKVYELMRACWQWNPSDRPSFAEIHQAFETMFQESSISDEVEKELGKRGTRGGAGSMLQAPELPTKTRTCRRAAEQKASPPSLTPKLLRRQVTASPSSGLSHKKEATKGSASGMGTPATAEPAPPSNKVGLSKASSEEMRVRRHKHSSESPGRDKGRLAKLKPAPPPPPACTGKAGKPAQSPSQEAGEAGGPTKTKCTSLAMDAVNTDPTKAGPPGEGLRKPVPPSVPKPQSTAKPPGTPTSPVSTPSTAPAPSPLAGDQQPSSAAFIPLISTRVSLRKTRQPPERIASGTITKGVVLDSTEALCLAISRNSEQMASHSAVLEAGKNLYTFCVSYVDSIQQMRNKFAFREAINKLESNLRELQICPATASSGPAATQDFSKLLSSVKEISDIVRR

Row | SMILES | Km (v-Abl kinase) | 460/530 ratio After Chymotrypsin, Phosphorylated Optical probe + PP2A + microcystin-LR (PP2A) | 460/530 ratio Before Chymotrypsin, Phosphorylated Optical probe + PP2A + microcystin-LR (PP2A) | inhibition of PP2A activity (PP2A) | 460/530 ratio After Chymotrypsin, Non-phosphorylated Optical probe + PP1 + microcystin-LR (chymotrypsin) | 460/530 ratio After Chymotrypsin, Non-phosphorylated Optical probe + PP2A + microcystin-LR (chymotrypsin) | 460/530 ratio Before Chymotrypsin, Non-phosphorylated Optical probe + PP2A + microcystin-LR (chymotrypsin) | inhibition of chymotrypsin cleavage (chymotrypsin) | 460/530 ratio After Chymotrypsin, Phosphorylated Optical probe + PP1 + microcystin-LR (PP1) | inhibition of PP1 activity (PP1)
1 | Nc1ncnc2c1ncn2[C@@H]1O[C@H](COP(=O)(O)OP(=O)(O)OP(=O)(O)O)[C@@H](O)[C@H]1O [ATP] | 8 µM | – | – | – | – | – | – | – | – | –
2 | C=C1C(=O)N[C@H](C)C(=O)N[C@@H](CC(C)C)C(=O)N[C@@H](C(=O)O)[C@H](C)C(=O)N[C@@H](CCCNC(=N)N)C(=O)N[C@@H](/C=C/C(C)=C/[C@H](C)[C@H](Cc2ccccc2)OC)[C@H](C)C(=O)N[C@@H](C(=O)O)CCC(=O)N1C [microcystin-LR, reference compound] (R[Adda][d(γGlu)][NMeDha][dA]L[dAsp(3S-Me)]-OH; lactam N-7) | – | 1.9 ± 0.1 | 1.4 ± 0.1 | completely inhibited | 13.3 ± 0.2 | 11.1 ± 0.2 | 1.4 ± 0.1 | did not inhibit | 2.8 ± 0.1 | almost completely inhibited
